Laboratory results from patent US20050064519A1, “Methods of using GST-Omega-2” (Pfizer Inc., priority 2003, published 2005).
Values belong to the molecule of their own block, whether it stands above or below them.

What was measured:
[1] = target: T1, flag-tagged murine GST-Omega-2 (Mus musculus, UniProt Q8K2Q2); test: Labeling of murine GST-Omega-2 by [14C]Compound 2 in infected SF9 cells, SDS/PAGE autoradiography; assay type: binding; conditions: 60 min
T1 construct: expressed in transfected cells; host or cells: SF9 insect cells, baculovirus infection (pFASTBAC-flag shuttle vector)
T1 sequence (Q8K2Q2 1-248): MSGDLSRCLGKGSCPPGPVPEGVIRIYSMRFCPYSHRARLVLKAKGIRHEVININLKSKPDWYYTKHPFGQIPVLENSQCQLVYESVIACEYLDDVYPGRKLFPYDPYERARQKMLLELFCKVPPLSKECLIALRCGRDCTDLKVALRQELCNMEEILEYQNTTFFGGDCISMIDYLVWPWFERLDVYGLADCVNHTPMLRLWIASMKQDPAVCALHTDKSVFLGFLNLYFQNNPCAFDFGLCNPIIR
Procedure: (§1) Insect cells (SF9) were infected with a baculovirus construct encoding flag-tagged murine GST-Omega-2 (see Example 5) and seeded into individual 10 cm dishes. For comparison, SF9 cells also were infected with a baculovirus construct encoding IKK[…] (IkappaB kinase gamma). After 48 hr of infection, media were removed and replaced with fresh medium (6 ml) containing from 0.01 to 10 μM [^14C]Compound 2. Cells were incubated with the radiolabeled diarylsulfonylurea for 60 min (at room temperature) and then collected by centrifugation and washed to remove unbound test agent. Each cell pellet then was suspended in 5 ml of PBS and divided into 2 fractions. Cells within one of these fractions (⅕ of the total) were collected by centrifugation and suspended in 150 µl of SDS/PAGE disaggregation buffer. Cells within the other fraction (⅘ of the total) were collected by centrifugation, solubilized by detergent extraction, and recombinant GST-Omega-2 was recovered by immunoprecipitation with the anti-Flag M2 antibody. Both the total cell lysates and the immunoprecipitates were fractionated by SDS/PAGE and the dried gels were analyzed by autoradiography.

[2] = target: T2, flag-tagged human GST-Omega-2 (Homo sapiens, UniProt Q9H4Y5); test: Labeling of GST-Omega-2 by [14C]Compound 2 in infected SF9 cells, SDS/PAGE autoradiography; assay type: binding; set-up: expressed in transfected cells; host or cells: SF9 insect cells, baculovirus infection (pFASTBAC-flag shuttle vector); conditions: 60 min
T2 sequence (Q9H4Y5 1-242 limits assumed): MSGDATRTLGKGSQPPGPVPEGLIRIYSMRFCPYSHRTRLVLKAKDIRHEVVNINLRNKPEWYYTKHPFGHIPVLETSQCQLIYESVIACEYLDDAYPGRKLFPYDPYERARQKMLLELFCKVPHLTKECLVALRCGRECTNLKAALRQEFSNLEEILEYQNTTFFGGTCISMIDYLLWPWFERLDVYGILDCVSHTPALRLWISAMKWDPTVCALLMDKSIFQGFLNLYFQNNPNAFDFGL
Procedure: as §1, with “human” for “murine”, “(I-κB kinase-γ/NF-κB essential modulator (NEMO)).” for “(IkappaB kinase gamma).”, “μM of” for “μM”

[3] = target: T2, flag-tagged human GST-Omega-2; test: Competitive binding assay: incorporation of [14C]Compound 2 into GST-Omega-2 in infected SF9 cells; set-up: expressed in transfected cells; host or cells: SF9 insect cells, baculovirus infection (pFASTBAC-flag shuttle vector); conditions: 30 min preincubation, then 2 µM [14C]Compound 2 for 60 min, relative to control cultures
Procedure: Insect cells (SF9) were infected with a baculovirus construct encoding flag-tagged human GST-Omega-2 (see Example 5) and seeded into individual 10 cm dishes. After 48 hr of infection, media were removed and replaced with fresh medium (6 ml) containing 100, 200 or 400 μM Compound 4, 10 μM Compound 2, or neither compound. The cultures were incubated for 30 min at room temperature after which 2 µM [^14C]Compound 2 was introduced and the cultures were incubated for 60 min at room temperature. The cells then were harvested by centrifugation, washed with PBS to remove unbound radioactivity, and solubilized by detergent extraction. GST-Omega-2 was recovered by immunoprecipitation with anti-Flag M2 antibody, and the resulting immunoprecipitates were fractionated by SDS/PAGE; the dried gel subsequently was analyzed by phosphorimager analysis.

[4] = target: T2, flag-tagged human GST-Omega-2; test: Diarylsulfonylurea (Compound 2) affinity column binding of GST-Omega-2 from HEK293 lysate, Western detection; set-up: expressed in transfected cells; conditions: 5 mM in buffer; Western blot of column fractions
Source text: Human embryonic kidney (HEK293) cells were transfected with a pcDNA3.1 mammalian expression vector encoding FLAG-tagged human GST-Omega-2. Stable transfectants isolated by growth in the presence of G418 were subcloned and a high expressing colony was identified. Four confluent 10 cm dishes of this cell line were established after which the cells were harvested and then disrupted by nitrogen cavitation. The resulting cell lysate was clarified by centrifugation and the supernatant fraction was recovered and applied to an affinity column (1 ml) composed of 1-(1,2,3,5,6,7-Hexahydro-s-indacen-4-yl)-3-[2-fluoro-5-oxiranylbenzenesulfonyl]-urea (hereinafter referred to as Compound 2 as per U.S. Patent Publication 2002-0034764) attached to Thiolpropyl-Sepharose. Compound 2 is a diarylsulfonylurea that contains an epoxide group which can react to form a covalent linkage with Thiolpropyl-Sepharose. In some cases, the cell extract was applied to the column in a buffer containing 5 mM of a competitive inhibitor, 1-(1,2,3,5,6,7-Hexahydro-s-indacen-4-yl)-3-[4-(1-hydroxy-1-methylethyl)-furan-2-sulfonyl]-urea (hereinafter referred to as Compound 4 as per the '372 application). The column was washed with buffer then eluted with a denaturing detergent, sodium dodecyl sulfate (SDS). Individual 1 ml fractions were collected and aliquots of each were fractionated by SDS/PAGE. […]

[5] = 1 µM, room temperature, versus IKK-expressing control cells
[6] = 10 µM (highest test concentration), control and GST-Omega-2-expressing cells

SMILES: O=C(Nc1c2c(cc3c1CCC3)CCC2)NS(=O)(=O)c1cc(C2CO2)ccc1F (centres unmarked) [[^14C]Compound 2]
polypeptides labeled in infected cells [1, 5]: only the polypeptide migrating as GST-Omega-2 appeared labeled | polypeptides labeled in infected cells [1, 6]: appeared to incorporate into several polypeptides | incorporation of radioactivity into anti-flag immunoprecipitated GST-Omega-2 ([1]; 0.01 to 10 μM): dose-dependent increase in the incorporation of radioactivity into the immunoprecipitated protein | polypeptides labeled in infected cells [2, 5]: only the polypeptide migrating as GST-Omega-2 appeared labeled | polypeptides labeled in infected cells [2, 6]: appeared to incorporate into several polypeptides | incorporation of radioactivity into anti-flag immunoprecipitated GST-Omega-2 ([2]; 0.01 to 10 μM): dose-dependent increase in the incorporation of radioactivity into the immunoprecipitated protein

inhibition of incorporation of [14C]Compound 2 into GST-Omega-2 ([3]; 10 µM unlabeled compound): 90%
SMILES: O=C(Nc1c2c(cc3c1CCC3)CCC2)NS(=O)(=O)c1cc(C2CO2)ccc1F (centres unmarked) [Compound 2, 1-(1,2,3,5,6,7-Hexahydro-s-indacen-4-yl)-3-[2-fluoro-5-oxiranylbenzenesulfonyl]-urea]

inhibition of incorporation of [14C]Compound 2 into GST-Omega-2 ([3]; 100 µM test compound): 63% | inhibition of incorporation of [14C]Compound 2 into GST-Omega-2 ([3]; 200 µM test compound): 73% | inhibition of incorporation of [14C]Compound 2 into GST-Omega-2 ([3]; 400 µM test compound): 84%
SMILES: CC(C)(O)c1coc(S(=O)(=O)NC(=O)Nc2c3c(cc4c2CCC4)CCC3)c1 [Compound 4, 1-(1,2,3,5,6,7-Hexahydro-s-indacen-4-yl)-3-[4-(1-hydroxy-1-methylethyl)-furan-2-sulfonyl]-urea]
competition with binding of GST-Omega-2 to the diarylsulfonylurea affinity column [4]: competed with the specific binding of GST-Omega-2 to the diarylsulfonylurea affinity column
